Test results taken from patent US6054435A, “6-O-substituted macrolides having antibacterial activity” (priority 1999, dated 2000).
In brackets after ≈: the same amount, converted by molar mass.

Key:
Assay in all cases: in vitro antibacterial activity (MIC), agar dilution
Assay type in all cases: cell-based
[1] = test system: Streptococcus pyogenes 930; settings: organism code MM; BHI agar, 35-37° C., 20 to 24 hours; unit assumed
Summary of the method: (§1)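 Steps: dilute compound serially into BHI agar (twelve plates); spot inocula diluted 1:100, or 1:10 for slow-growing Streptococcus; incubate; inspect visually. MIC recorded as lowest level with no growth, slight haze or sparse isolated colonies.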

[2] = test system: Streptococcus Pneumonia ATCC6303; settings: organism code XX; BHI agar, 35-37° C., 20 to 24 hours; unit assumed
Summary of the method: as §1

[3] = test system: Staphylococcus epidermidis 3519; settings: organism code HH; BHI agar, 35-37° C., 20 to 24 hours; unit assumed
Summary of the method: as §1

[4] = test system: Streptococcus bovis A-5169; settings: organism code JJ; BHI agar, 35-37° C., 20 to 24 hours; unit assumed
Summary of the method: as §1

[5] = test system: Streptococcus Pneumonia 5979; settings: organism code ZZ; BHI agar, 35-37° C., 20 to 24 hours; unit assumed
Summary of the method: as §1

[6] = test system: Escherichia coli DC-2; settings: organism code SS; BHI agar, 35-37° C., 20 to 24 hours; unit assumed
Summary of the method: as §1

[7] = test system: Streptococcus pyogenes PIU 2548; settings: organism code NN; BHI agar, 35-37° C., 20 to 24 hours; unit assumed
Summary of the method: as §1

[8] = test system: Staphylococcus aureus A-5278; settings: organism code CC; BHI agar, 35-37° C., 20 to 24 hours; unit assumed
Summary of the method: as §1

[9] = test system: Haemophilis Influenzae DILL AMP R; settings: organism code WW; BHI agar, 35-37° C., 20 to 24 hours; unit assumed
Summary of the method: as §1

[10] = test system: Staphylococcus aureus 1775; settings: organism code GG; BHI agar, 35-37° C., 20 to 24 hours; unit assumed
Summary of the method: as §1

[11] = test system: Streptococcus Pneumonia GYR 1171; settings: organism code YY; BHI agar, 35-37° C., 20 to 24 hours; unit assumed
Summary of the method: as §1

[12] = test system: Candida albicans CCH 442; settings: organism code TT; BHI agar, 35-37° C., 20 to 24 hours; unit assumed
Summary of the method: as §1

[13] = test system: Micrococcus luteus ATCC 4698; settings: organism code PP; BHI agar, 35-37° C., 20 to 24 hours; unit assumed
Summary of the method: (§2)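 Test compound serially diluted in Brain Heart Infusion agar across twelve plates; inocula of 1:100 dilution (1:10 for slow growers such as Streptococcus) applied by Steers replicator. MIC taken visually as lowest concentration giving no growth, slight haze or sparse isolated colonies versus drug-free growth control.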

[14] = test system: Streptococcus agalactiae CMX 508; settings: organism code KK; BHI agar, 35-37° C., 20 to 24 hours; unit assumed
Summary of the method: as §1

[15] = test system: Micrococcus luteus ATCC 9341; settings: organism code OO; BHI agar, 35-37° C., 20 to 24 hours; unit assumed
Summary of the method: as §2

[16] = test system: Streptococcus Pneumonia 5649; settings: organism code ZZA; BHI agar, 35-37° C., 20 to 24 hours; unit assumed
Summary of the method: as §1

[17] = test system: Streptococcus pyogenes EES61; settings: organism code LL; BHI agar, 35-37° C., 20 to 24 hours; unit assumed
Summary of the method: as §1

[18] = test system: Staphylococcus aureus CMX 553; settings: organism code FF; BHI agar, 35-37° C., 20 to 24 hours; unit assumed
Summary of the method: as §1

[19] = test system: Enterococcus faecium ATCC 8043; settings: organism code II; BHI agar, 35-37° C., 20 to 24 hours; unit assumed
Summary of the method: as §1

[20] = test system: Escherichia coli SS; settings: organism code RR; BHI agar, 35-37° C., 20 to 24 hours; unit assumed
Summary of the method: as §1

[21] = test system: Staphylococcus aureus A5177; settings: organism code BB; BHI agar, 35-37° C., 20 to 24 hours; unit assumed
Summary of the method: as §1

[22] = test system: Escherichia coli JUHL; settings: organism code QQ; BHI agar, 35-37° C., 20 to 24 hours; unit assumed
Summary of the method: as §1

[23] = test system: Staphylococcus aureus NCTC10649M; settings: organism code EE; BHI agar, 35-37° C., 20 to 24 hours; unit assumed
Summary of the method: as §1

[24] = test system: Nocardia Asteroides ATCC9970; settings: organism code VV; BHI agar, 35-37° C., 20 to 24 hours; unit assumed
Summary of the method: as §1

[25] = test system: Staphylococcus aureus ATCC 6538P; settings: organism code AA; BHI agar, 35-37° C., 20 to 24 hours; unit assumed
Summary of the method: as §1

[26] = test system: Mycobacterium smegmatis ATCC 114; settings: organism code UU; BHI agar, 35-37° C., 20 to 24 hours; unit assumed
Summary of the method: as §1

[27] = test system: Staphylococcus aureus CMX 642A; settings: organism code DD; BHI agar, 35-37° C., 20 to 24 hours; unit assumed
Summary of the method: as §1

With CC[C@H]1OC(=O)[C@H](C)C(=O)[C@H](C)[C@@H](O[C@@H]2O[C@H](C)C[C@H](N(C)C)[C@H]2O)[C@](C)(OCC#Cc2ccc(-c3cccc(C)c3)s2)C[C@@H](C)C(=O)[C@H](C)[C@H]2NC(=O)O[C@@]21C [Example 18] the MIC [1] was 1.56 µg/mL (≈ 1.93 µM), the MIC [2] was 0.06 µg/mL (≈ 0.0742 µM) and the MIC [3] was 0.2 µg/mL (≈ 0.247 µM). The MIC [4] was 0.01 µg/mL (≈ 0.0124 µM), the MIC [5] was 2 µg/mL (≈ 2.47 µM) and the MIC [6] was over 100 µg/mL. The MIC [7] was 0.2 µg/mL (≈ 0.247 µM), the MIC [8] was 25 µg/mL (≈ 30.9 µM) and the MIC [9] was 2 µg/mL (≈ 2.47 µM). The MIC [10] was 12.5 µg/mL (≈ 15.5 µM), the MIC [11] was 0.03 µg/mL (≈ 0.0371 µM) and the MIC [12] was over 100 µg/mL. For the same compound, the MIC [13] was 0.2 µg/mL (≈ 0.247 µM), the MIC [14] was 0.02 µg/mL (≈ 0.0247 µM) and the MIC [15] was 0.02 µg/mL (≈ 0.0247 µM). The MIC [16] was 0.5 µg/mL (≈ 0.618 µM), the MIC [17] was 0.02 µg/mL (≈ 0.0247 µM) and the MIC [18] was 0.1 µg/mL (≈ 0.124 µM). The MIC [19] was 0.1 µg/mL (≈ 0.124 µM), the MIC [20] was 0.78 µg/mL (≈ 0.964 µM) and the MIC [21] was 0.1 µg/mL (≈ 0.124 µM). For the same compound, the MIC [22] was over 100 µg/mL, the MIC [23] was 0.2 µg/mL (≈ 0.247 µM) and the MIC [24] was 0.1 µg/mL (≈ 0.124 µM). For the same compound, the MIC [25] was 0.1 µg/mL (≈ 0.124 µM), the MIC [26] was 0.1 µg/mL (≈ 0.124 µM) and the MIC [27] was 0.1 µg/mL (≈ 0.124 µM).
